This test deals with T1, IGF-1R (Homo sapiens, UniProt P08069).
T1 construct: expressed in transfected cells
Kind of test: Example B-1: IGF-1R Assay (PC3 cells stimulated with IGF1, AlphaLISA on cell lysates). The format is cell-based. Conditions: compound two hours, IGF1 200 ng/mL for 30 min, read-out: IC50, Biological Activity against IGF-1R (Table B1). The gist of the method:
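PC3 cells serum-starved 2 h, treated 2 h with 3-fold serially diluted compound, then stimulated 30 min with IGF1 (200 ng/mL final). Lysates analysed by AlphaLISA; % inhibition calculated relative to vehicle and EC80 controls, IC50 derived.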

T1 sequence (P08069 31-1367): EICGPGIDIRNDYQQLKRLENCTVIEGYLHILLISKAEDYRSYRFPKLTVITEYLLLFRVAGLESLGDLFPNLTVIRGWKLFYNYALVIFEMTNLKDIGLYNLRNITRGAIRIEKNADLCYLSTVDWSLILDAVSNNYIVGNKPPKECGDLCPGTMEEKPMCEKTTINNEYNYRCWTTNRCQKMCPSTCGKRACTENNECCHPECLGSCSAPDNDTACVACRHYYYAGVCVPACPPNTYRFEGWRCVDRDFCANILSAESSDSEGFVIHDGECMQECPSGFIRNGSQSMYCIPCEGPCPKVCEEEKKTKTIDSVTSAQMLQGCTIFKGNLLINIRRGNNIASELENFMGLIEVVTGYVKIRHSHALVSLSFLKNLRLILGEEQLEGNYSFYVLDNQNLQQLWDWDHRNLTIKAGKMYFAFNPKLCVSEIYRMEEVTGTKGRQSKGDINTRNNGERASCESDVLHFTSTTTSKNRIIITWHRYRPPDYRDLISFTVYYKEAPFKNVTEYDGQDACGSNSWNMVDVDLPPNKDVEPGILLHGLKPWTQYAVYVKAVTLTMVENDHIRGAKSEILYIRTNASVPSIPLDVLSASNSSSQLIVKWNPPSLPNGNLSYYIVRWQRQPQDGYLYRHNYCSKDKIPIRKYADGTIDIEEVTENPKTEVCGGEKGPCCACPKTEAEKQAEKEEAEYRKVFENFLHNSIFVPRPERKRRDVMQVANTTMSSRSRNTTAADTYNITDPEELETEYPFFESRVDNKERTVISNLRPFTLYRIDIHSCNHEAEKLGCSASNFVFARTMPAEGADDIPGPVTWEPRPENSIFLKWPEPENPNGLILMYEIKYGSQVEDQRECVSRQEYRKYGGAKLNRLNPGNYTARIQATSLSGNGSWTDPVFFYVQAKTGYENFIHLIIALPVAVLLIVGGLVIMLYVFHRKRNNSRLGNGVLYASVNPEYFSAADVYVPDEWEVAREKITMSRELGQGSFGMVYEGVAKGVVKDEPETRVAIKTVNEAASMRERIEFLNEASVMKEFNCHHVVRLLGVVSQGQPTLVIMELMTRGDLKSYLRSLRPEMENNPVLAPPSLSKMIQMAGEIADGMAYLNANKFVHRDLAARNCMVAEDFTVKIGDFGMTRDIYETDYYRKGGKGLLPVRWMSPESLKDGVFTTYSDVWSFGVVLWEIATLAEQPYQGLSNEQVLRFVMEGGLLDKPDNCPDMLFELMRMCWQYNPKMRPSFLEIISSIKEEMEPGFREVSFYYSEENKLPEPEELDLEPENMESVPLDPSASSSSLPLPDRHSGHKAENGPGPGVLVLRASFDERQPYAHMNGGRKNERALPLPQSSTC

The term IC50 denotes the concentration at which inhibition is half-maximal. `Cc1ccc(NC(=O)Nc2cc(CN3C(=O)N(c4ccc(SC(F)(F)F)cc4)C(=O)C3(C)C)ccn2)cc1` [Compound 371, 1-(4-((5,5-dimethyl-2,4-dioxo-3-(4-((trifluoromethyl)thio)phenyl)imidazolidin-1-yl)methyl)pyridin-2-yl)-3-(p-tolyl)urea]: the half-maximal inhibitory concentration (IC50) is at most 500 nM.

With `CC1(C)C(=O)N(c2ccc(SC(F)(F)F)cc2)C(=O)N1Cc1ccnc(Nc2ncccn2)c1` [Compound 399, 5,5-dimethyl-1-((2-(pyrimidin-2-ylamino)pyridin-4-yl)methyl)-3-(4-((trifluoromethyl)thio)phenyl) imidazolidine-2,4-dione], the concentration for half-maximal inhibition (IC50) was at most 500 nM.

In the case of `Cc1[nH]c2nccc(CN3C(=O)N(c4ccc(C5(C(F)(F)F)CC5)cc4)C(=O)C3(C)C)c2c1Cl` [Compound 10, 1-((3-chloro-2-methyl-1H-pyrrolo[2,3-b]pyridin-4-yl)methyl)-5,5-dimethyl-3-(4-(1-(trifluoromethyl)cyclopropyl)phenyl) imidazolidine-2,4-dione], the 50% inhibitory concentration (IC50) is at most 500 nM.

In the case of `CC1(C)C(=O)N(c2ccc(C3=CCCCC3)cc2)C(=O)N1Cc1ccnc(N)c1` [Compound 86, 1-((2-aminopyridin-4-yl)methyl)-5,5-dimethyl-3-(2′,3′,4′,5′-tetrahydro-[1,1′-biphenyl]-4-yl)imidazolidine-2,4-dione], the IC50 lay in the range of 500 to 2000 nM.

For the compound `CC(C)Nc1cc(CN2C(=O)N(c3ccc(S(F)(F)(F)(F)F)cc3)C(=O)C2(C)C)ccn1` [Compound 178, 1-((2-(isopropylamino)pyridin-4-yl)methyl)-5,5-dimethyl-3-(4-(pentafluoro-16-sulfanyl)phenyl)imidazolidine-2,4-dione], the IC50 was at most 500 nM.

Consider `CC(C)(C)c1ccc(N2C(=O)N(Cc3ccnc(NC4CCOCC4)c3)C(C)(C)C2=O)cc1` [Compound 266, 3-(4-(tert-butyl)phenyl)-5,5-dimethyl-1-((2-((tetrahydro-2H-pyran-4-yl)amino)pyridin-4-yl)methyl)imidazolidine-2,4-dione], for which the IC50 is at most 500 nM.

For the compound `Nc1cc(CN2C(=O)N(c3ccc(SC(F)(F)F)cc3)C(=O)C23CCCC3)ccn1` [Compound 291, ((2-aminopyridin-4-yl)methyl)-3-(4-((trifluoromethyl)thio)phenyl)-1,3-diazaspiro[4.4]nonane-2,4-dione], the IC50 fell in the range of 500 to 2000 nM.

For the compound `CC(C)Nc1cc(CN2C(=O)N(c3ccc(I)cc3)C(=O)C2(C)C)ccn1` [Compound 92, 3-(4-iodophenyl)-1-((2-(isopropylamino)pyridin-4-yl)methyl)-5,5-dimethylimidazolidine-2,4-dione], the half-maximal inhibitory concentration (IC50) lay in the range of 500 to 2000 nM.

Take `CC1(C)C(=O)N(c2ccc(C3(C(F)(F)F)CC3)cc2)C(=O)N1Cc1ccnc2[nH]c(-c3ccccc3)cc12` [Compound 11, 5,5-dimethyl-1-((2-phenyl-1H-pyrrolo[2,3-b]pyridin-4-yl)methyl)-3-(4-(1-(trifluoromethyl)cyclopropyl)phenyl) imidazolidine-2,4-dione]: the half-maximal inhibitory concentration (IC50) is at most 500 nM.

Consider `CC(=O)Nc1cc(CN2C(=O)N(c3ccc(SC(F)(F)F)cc3)C(=O)C2(C)C)ncn1` [Compound 365, N-(6-((5,5-dimethyl-2,4-dioxo-3-(4-((trifluoromethyl)thio)phenyl)imidazolidin-1-yl)methyl)pyrimidin-4-yl)acetamide], for which the IC50 is at most 500 nM.

For `CC1(C)C(=O)N(c2ccc(SC(F)(F)F)cc2)C(=O)N1Cc1ccnc(NC(=O)C2CC3(CNC3)C2)c1` [Compound 302, N-(4-((5,5-dimethyl-2,4-dioxo-3-(4-((trifluoromethyl)thio)phenyl)imidazolidin-1-yl)methyl)pyridin-2-yl)-2-azaspiro[3.3]heptane-6-carboxamide], the half-maximal inhibitory concentration (IC50) is at most 500 nM.

Regarding `COC[C@H](C)Nc1cc(CN2C(=O)N(c3ccc(C(C)(C)C)cc3)C(=O)C2(C)C)ccn1` [Compound 269, (S)-3-(4-(tert-butyl)phenyl)-1-((2-((1-methoxypropan-2-yl)amino)pyridin-4-yl)methyl)-5,5-dimethylimidazolidine-2,4-dione], the 50% inhibitory concentration (IC50) was at most 500 nM.
